Assays:
[1] = tested on: 4T1 tumor-bearing mice; experiment: 4T1 breast cancer model, UNO/Anti-PD-1 Repeated Dose Study; format: in vivo, mouse
Protocol: Preparation of 4T1 cells: Cancer cell suspension, in Hanks' Balanced Salt Solution (HBSS) (Biological Industries, Israel), at a concentration of 5.0×10^6 cells/ml was freshly prepared on the day of the cancer model induction. Cells were grown to a 70-80% confluency and harvested using trypsin. The cells were centrifuged at 1,200 revolutions per minute (rpm)—241 G for 8 minutes, then the pellet was re-suspended in 1 ml of HBSS. The cells were counted using an automated cell counter and a suspension with a concentration of 5.0×10^6 cells/ml was prepared. Cell viability must be above 90% before cell inoculation to the mice, otherwise new cells will need to be prepared. At the point of inoculation, cells will be at passage 8 at most. The cell suspension was then aspirated into a 1 ml syringe with a 27 G needle, for subcutaneous (s.c.) injection. All injection volume was used and was not re-introduced into the stock solution.
Inoculation of 4T1 cancer cells to mice—Cancer cell suspension at a concentration of 5.0×10^6 cells/ml was inoculated to the right flank of animals at a volume of 100 μl per mouse. Female Balb/c mice were inoculated with 100 μl of 5.0×10^6 4T1 cells/ml. Administration was performed as soon as possible following cell preparation and after manual shaking prior to withdrawal of cell suspension. Injections were performed using a 1 ml syringe and a 27 G needle where withdrawal is done without the needle.
UNO and N2 treatment—On the day of treatment, mice were anesthetized by an intraperitoneal (i.p.) injection of 100 mg/kg of ketamine and 10 mg/kg of xylazine hydrochloride solution. Tumor-bearing mice were treated with either N2 or UNO at 50,000 ppm or 100,000 ppm. UNO at 50,000 ppm was administered intratumorally by a 23 G needle for 10 minutes, at 0.2 LPM and 2 bar exit pressure. UNO at 100,000 ppm was administered intratumorally by a 23 G needle for 2 minutes, at 0.2 LPM and 2 bar exit pressure. After treatment, all mice were warmed and closely monitored until complete recovery was observed.
Injection of anti-PD-1—Anti-PD-1 was administered 5 times intraperitoneally (i.p.) at a dose of 10 mg/kg, i.p., using a 1 ml syringe with a 27 G needle. The injection was administered to approximately the same location each time.
UNO/Anti-PD-1 Repeated Dose Study—Balb/c mice (96) were inoculated with mouse breast cancer carcinoma (4T1) cells injected subcutaneously (s.c.) to the right flank. When the average tumor volume reached 50-150 mm^3, mice assigned to gas treatment groups were treated with 5% UNO (50,000 ppm), stabilized in N2, injected intratumorally (i.t.) for 10 minutes at a flow rate of 0.2 liters per minute (LPM) or with N2 injected intratumorally (i.t.) for 10 minutes at a flow rate of 0.2 LPM as a control. The mice were administered the gas treatment, e.g., UNO or N2, twice, on day 9 post-tumor cells inoculation and, 5 days later, on day 14 post-tumor inoculation. Mice assigned to the combination treatment group (i.e., gas+anti-mPD-1) were administered anti-mPD-1 injections starting from the day of first gas treatment and administered every three days thereafter, with a final dose of anti-mPD-1 injected 12 days after the first gas treatment.
Primary tumor volume progression was monitored twice a week by measuring the tumor using a digital caliper calculated as: […]
where Diameter 1 is length, Diameter 2 is width, and Diameter 3 is height.
Mice receiving two UNO treatments were divided into two groups: in the first group, the primary tumors were surgically removed 15 days after the first UNO treatment, while, in the second group, the tumors were not resected. Mice survival was evaluated. Mice that reached a tumor volume of ≥1500 mm^3 and/or a score of 12 were humanely euthanized, and the time of death was recorded. Metastases development was evaluated postmortem.

[2] = tested on: CT26 tumor-bearing mice; experiment: CT26 tumor model, UNO + anti-mPD-1 + CpG-B; format: in vivo, mouse
Protocol: Preparation of cancer cells for injection—Mouse colon carcinoma CT26.WT cells (ATCC, Cat no. CRL-2638) suspended in Hanks' Balanced Salt Solution (HBSS) (Biological Industries, Israel), at a concentration of 5.0×10^6 cells/ml, were freshly prepared on the day of cancer model induction. Cells were grown to 70% confluency and were harvested using trypsin (Biological Industries, Israel), and counted using a cell counter device. The cells were then centrifuged at 1,200 rpm (241×g) for 8 minutes, and the pellet was re-suspended in ice cold HBSS at 5.0×10^6 in 1 ml (5.0×10^5 cells in 100 μl solution). Cell viability was >90% as determined by trypan blue staining prior to inoculation to mice. At the point of inoculation, cells were at passage 8 at most.
Inoculation of CT26 cancer cells to mice—100 μl/mouse of the_CT26 cancer cells suspension (concentration of 5.0×10^6 cells/ml) were inoculated subcutaneously (s.c.) to the right flank of male BALB/c mice, which were 10 weeks of age (Envigo, the Netherlands). Five days later, CT26 cells at the same dose were inoculated s.c. to the left flank of each mouse. Ten days post primary tumor inoculation tumor-bearing mice were divided into the following groups (day 0) as depicted in Table 2 below and treated according to the timeline shown in FIG. 20:
Mice were followed up for totally 52 days. Tumor take was monitored by palpation of the flank and tumor growth was monitored by measurement of the tumor dimensions using a digital caliper. Mice were sacrificed and excluded from the study if their total tumor volume was >1500 mm^3 or their distress scoring >12 as was accepted according to the IACUC IL-2112-105-5.
UNO treatment—On the day of treatment, mice were anesthetized by an intraperitoneal (i.p.) injection of 100 mg/kg ketamine and 10 mg/kg of xylazine hydrochloride solution. Tumor-bearing mice were treated with 50,000 ppm of UNO delivered into the tumor by a 23 G needle over 5 minutes, at 0.2 LPM. After treatment, all mice were warmed and closely monitored until complete recovery was observed. […]

[3] = with primary tumor resection (FIG. 13B), Cox model

## [N]=O [UNO, nitric oxide]
[1]; repeated UNO dosing 50,000 ppm 10 min twice, 14 days after first UNO treatment (FIG. 12B)
  Primary tumor size vs untreated or only anti-mPD-1: significantly smaller
[1]; repeated doses of UNO
  Survival (Kaplan-Meier) vs anti-mPD-1 alone, untreated or N2 controls: tendency toward prolonged survival
[1]; repeated doses of UNO without anti-mPD-1, 14 days after first UNO treatment
  Tumors smaller compared to anti-mPD-1 alone group: 21.0%
[1]; [3]
  Survival hazard ratio vs anti-mPD-1: 1.58
  Survival hazard ratio vs untreated: 0.69
[1]; without resection of primary tumor (FIG. 13A), Cox model
  Survival hazard ratio vs untreated: 0.63
[2]; 42 days after treatments (FIG. 16)
  Percentage of mice with primary tumor complete regression: 10%
[2]; 42 days following treatments (FIG. 17)
  Distant tumor rejection, percentage of mice: 11%
[2]; 52 days following primary tumor inoculation
  Percentage of group surviving: 10%

Source: patent US20250339462A1, “CANCER TREATMENT USING ULTRA-HIGH CONCENTRATION GASEOUS NITRIC OXIDE AND A CHECKPOINT INHIBITOR” (Beyond Air, Inc., priority 2022, published 2025)
